Reference: patent publication EP4603504A1, “NOVEL CATHEPSIN K AND L INHIBITORS” (ECOLE POLYTECHNIQUE FEDERALE DE LAUSANNE (EPFL), priority 2024, dated 2025)
Each block holds one compound with its values, some of them ahead of it. Peptide text beside a SMILES is read from it.

Key:
[1] = Solubility (remark in text, no method); format: physicochemical
CTSL [2] = molecular target: T1, CTSL (Homo sapiens, UniProt P07711); test: FRET assay cathepsin L; format: biochemical; details: result in words, compared with other NNPIs (Fig 2h-j)
T1 construct: purchased R&D systems 952-CY-010
Description: (§1) In brief, CTSK or CTSL was diluted to 20 µg/ml or 40 µg/ml respectively, in Assay Buffer (50 mM MES, 5 mM DTT, 1 mM EDTA, 0.005% (w/v) Brij-35, pH 6.0), and incubated on ice for 15 minutes. After activation, CTSK or CTSL was diluted to 0.02 µg/ml in Assay Buffer. The substrate peptide Z-Leu-Arg-AMC (R&D systems, cat #ES008) was then diluted to 20 µM in Assay buffer (40 µM for CTSL).
(§2) Next, 50 µl of the enzyme solution was loaded in a 96-well plate, inhibitors to be tested were added to the enzyme and incubated for 30 minutes, and then the reaction was started by adding 50 µl of the fluorogenic substrate. A substrate blank containing 50 µl of Assay Buffer and 50 µl of substrate without any cathepsin was included. Fluorescent emission was measured with SpectraMax iD3 (Molecular Devices) in kinetic mode for 60 minutes (excitation: 380 nm, emission: 460 nm).
A library of 32 NNPIs was screened by FRET assay on CTSK and CTSL by using 384-well plates. For each of the amino acid positions from 2 to 7 in the original NNPI-E15 structure, 6 different amino acid substitutions were tested (A, L, T, W, E or R). The final concentrations of enzyme and substrate were the same as the ones described above for the respective FRET assays. The final reaction volume per well was 20 µl. The inhibitor concentration was 30 nM. Fluorescent emission was measured with a BioTek Neo HTS plate reader.

[3] = system: panel of 7 different cysteine cathepsin proteases; test: FRET assays on a panel of cathepsins (selectivity); format: biochemical; details: profiled against five additional cathepsins (Fig. 1)
Excerpt: The figures show. • Figure 1. […] A schematic representation of the structure of the NNPI is given to the left.

CTSL [4] = molecular target: T1, CTSL; test: FRET assay on cathepsin L (CTSL); format: biochemical; details: substrate Z-Leu-Arg-AMC, inhibitor preincubated 30 minutes, n=3
Description: as §1, §2

T1 sequence (P07711 114-333): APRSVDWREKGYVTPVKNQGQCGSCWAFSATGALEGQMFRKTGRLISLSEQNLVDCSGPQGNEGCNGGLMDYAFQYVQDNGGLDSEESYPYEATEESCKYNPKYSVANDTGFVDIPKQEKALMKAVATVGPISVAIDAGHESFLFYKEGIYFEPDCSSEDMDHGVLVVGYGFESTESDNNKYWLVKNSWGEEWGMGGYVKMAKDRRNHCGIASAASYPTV

- solubility [1]: poor
Compound: KRLW(Y)VMW [NNPI-G12] [listing 1 of 2 here]

- inhibitory potency on CTSL (CTSL [2]): most potent inhibitor
Compound: KRLW(Y)VMW [NNPI-G12] [listing 2 of 2 here]

Compound: CC[C@H](C)[C@H](NC(=O)[C@@H](NC(=O)/C=C/CNC(=O)[C@H](CC(C)C)NC(=O)[C@H](CCCNC(=N)N)NC(=O)[C@H](CCCNC(=N)N)NC(=O)[C@@H](N)CCCCN)C(C)C)C(=O)N[C@@H](CCCNC(=N)N)C(N)=O [NNPI-F17, KRRL(Y)VIR] (HELM PEPTIDE1{K.R.R.L.[O=C(/C=C/CN[*:1])[*:2]].V.I.R.[am]}$$$$V2.0; N-terminus and C-terminus assumed)
- selectivity [3]: good selectivity

Compound: CC(C)C[C@H](NC(=O)[C@H](CCCNC(=N)N)NC(=O)[C@@H](N)CCCCN)C(=O)N[C@@H](Cc1c[nH]c2ccccc12)C(=O)NC/C=C/C(=O)N[C@H](C(=O)N[C@@H](CC(C)C)C(=O)N[C@@H](Cc1c[nH]c2ccccc12)C(N)=O)C(C)C [NNPI-G14, KRLW(Y)VLW] (HELM PEPTIDE1{K.R.L.W.[O=C(/C=C/CN[*:1])[*:2]].V.L.W.[am]}$$$$V2.0)
- selectivity [3]: good selectivity
- IC50 (CTSL [4]): 1.7 nM
